# Several values for one entry are separate records, joined by “and”; a condition that tells them apart may be missing. Equal values may be shown once. Read-outs that look alike come from different tables or passages of the source.
# What was measured:
# human liver microsomes [1] = assay: Metabolism of pemigatinib in human liver microsomes with selective chemical CYP inhibitors; conditions: pemigatinib 1 μM, human liver microsomes 1 mg/mL, NADPH; no inhibitor or furafylline 10, ticlopidine 2, quercetin 10, sulfaphenazole 10, tranylcypromine 20, quinidine 1, ketoconazole 2 μM
# Experimental: (§1) Aliquots were taken at 0, 10, 20, and 30 minutes and denatured with methanol. After centrifugation to remove the denatured proteins, the resulting supernatants were analyzed by LC/MS.
# human liver microsomes [2] = conditions: 0.5 h, 1 μM, pH 7.4
# Experimental: as §1
# [3] = human, in vivo
# [4] = Phase 1 drug-drug interaction study: safety and tolerability (TEAEs); conditions: healthy male and female volunteers
# Experimental: In addition, this study also evaluates the safety and tolerability of pemigatinib when administered alone or in combination with itraconazole or rifampin. Safety and tolerability is assessed by monitoring adverse events, vital signs, physical examinations, 12-lead ECGs, and clinical laboratory blood and urine sample assessments. Pharmacokinetic endpoints include tmax, AUC0-t, AUC0-∞, t1/2, CL/F, and Vz/F.
# Vital signs (oral temperature; respiratory rate; automated, seated blood pressure; and pulse) are obtained at screening, check-in, and follow-up; at 0 hour (predose) on Days 1 and 8; and at approximately 1, 2, 3, 6, and 24 hours after the morning dose on Day 4 and Day 9. Clinical safety laboratory assessments are performed at screening; on Days −1, 2, 5, 9, 10, and 11; and at follow-up. A serum pregnancy is obtained at screening and follow-up. A urine pregnancy test is obtained at check-in for each visit for all women. On Day 8, a 12-lead ECG is performed predose, 2 hours postdose, and approximately 24 hours postdose. On other days, 12-lead ECGs are performed only at predose.
# Vital signs (oral temperature; respiratory rate; automated, seated blood pressure; and pulse) are obtained at screening, check-in and follow-up; at 0 hour (predose) on Days 1 and 11; and at approximately 1, 2, 3, 6, and 24 hours after the morning dose on Days 4, 10, and 12. Clinical safety laboratory assessments are performed at screening; on Days −1, 2, 8, and 13; and at follow-up. A serum pregnancy test is obtained at screening and follow-up. A urine pregnancy test is obtained at check-in for each visit for all women. On Day 11, a 12-lead ECG is performed predose, 2 hours postdose, and approximately 24 hours postdose. On other days, 12-lead ECGs is performed only at predose.
# [5] = Phase 1 drug-drug interaction study: single-dose pemigatinib PK alone or with itraconazole or rifampin
# [6] = Cohort 2: 13.5 mg pemigatinib alone or with rifampin 600 mg QD, geometric mean
# [7] = Cohort 2: 13.5 mg pemigatinib alone or with rifampin 600 mg QD, mean ± SD
structure (smiles),measurement,setting,value
N[C@@H]1C[C@H]1c1ccccc1 (racemic) [Tranylcypromine],Mean Percent of Pemigatinib Remaining After 30-Minute Incubation (N = 3),human liver microsomes [1],73 ± 2%
O=c1c(O)c(-c2ccc(O)c(O)c2)oc2cc(O)cc(O)c12 [Quercetin],Mean Percent of Pemigatinib Remaining After 30-Minute Incubation (N = 3),human liver microsomes [2],77 ± 1%
CCN1C(=O)N(c2c(F)c(OC)cc(OC)c2F)Cc2cnc3[nH]c(CN4CCOCC4)cc3c21 [Pemigatinib + rifampin],Decrease in half-life of pemigatinib following rifampin coadministration,[3],63%
same,Safety and tolerability (overall conclusion),[4],safe and generally well tolerated
same,AUC0-t,[5]; [6],0.28 µM·h
same,AUC0-∞,[5]; [6],0.292 µM·h
same,CL/F,[5]; [6],94.7 L/h
same,Cmax,[5]; [6],66.9 nM
same,t1/2,[5]; [6],4.7 h and 4.69 h
same,AUC0-t,[5]; [7],0.289 ± 0.0749 µM·h
same,AUC0-∞,[5]; [7],0.301 ± 0.0755 µM·h
same,CL/F,[5]; [7],97.5 ± 23.8 L/h
same,t1/2,[5]; [7],5.05 ± 2.76 h
same,Tmax,"[5]; Cohort 2: 13.5 mg pemigatinib alone or with rifampin 600 mg QD, median",1.00 h
same,Cmax,"[5]; Cohort 2: healthy volunteers n=18, single oral 13.5 mg pemigatinib fasted, alone or with rifampin 600 mg QD, mean ± SD",69.7 ± 20 nM
same,Change in pemigatinib exposure on coadministration,"[5]; with potent CYP3A4 inhibitor or inducer, healthy volunteers",clinically significant decrease
Nc1ccc(S(=O)(=O)Nc2ccnn2-c2ccccc2)cc1 [Sulfaphenazole],Mean Percent of Pemigatinib Remaining After 30-Minute Incubation (N = 3),human liver microsomes [2],70 ± 3%

# Reference: patent US11628162B2, “Methods of treating cancer with an FGFR inhibitor” (Incyte Corporation, priority 2019, dated 2023)
